Data as given in publication PMC6018633, “Structural bases of TRP channel TRPV6 allosteric modulation by 2-APB” (Nature Communications, 2018).
Values belong to the molecule of their own block, whether it stands above or below them.

What was measured:
[1] = biological target: rTRPV6-E402A (Rattus norvegicus, UniProt Q9R186, E442A); assay: cell-based
From the text: (§1) To further characterize the 2-APB binding site and to examine the contribution of individual residues to 2-APB inhibition, we introduced alanine substitutions at residues in the 2-APB binding pocket (E402, H425, Y466, R469, and M602) and tested 2-APB inhibition.
(§2) For crystallization experiments, we used the previously developed construct TRPV6*[39], which includes wild-type rat TRPV6 (rTRPV6) residues 1–668 and three point mutations (I62Y, L92N, and M96Q), and the TRPV6*-Y466A construct, which contains an additional point mutation, Y466A. For calcium uptake measurement experiments, we used TRPV6*, rTRPV6, and rTRPV6 with individual alanine substitutions (rTRPV6-E402A, rTRPV6-H425A, rTRPV6-Y466A, rTRPV6-R469A, and rTRPV6-M602A), wild-type human TRPV6 (hTRPV6), hTRPV6 with a single tyrosine-to-alanine substitution (hTRPV6-Y467A), wild-type rat TRPV1 (rTRPV1), rat TRPV2 (rTRPV2) and mouse TRPV3 (mTRPV3), and their mutant versions with single tyrosine-to-alanine substitutions (rTRPV1-Y554A, rTRPV2-Y514A, and mTRPV3-Y564A, respectively). For cryo-EM experiments, we used hTRPV6 and hTRPV6-Y467A constructs.
(§3) The intracellular Ca^2+ measurements from HEK 293 cells expressing different TRP channel constructs (see above) were performed similarly to those described previously[39],[49]. Briefly, to measure 2-APB-dependent inhibition of TRPV6 activity, cells expressing TRPV6 constructs were suspended in Ca^2+-free buffer and transferred to a quartz cuvette. After an initial 100-s equilibration period, 2-APB was added to the cuvette and incubated for another 100 s, before 2 mM CaCl2 was added. For the TRPV6-E402A mutant, 5 mM instead of 2 mM CaCl2 was added. For intracellular Ca^2+ measurements from HEK 293 cells expressing TRPV1, TRPV2, or TRPV3, the experiments were carried out with prewarmed modified HBS (118 mM NaCl, 4.8 mM KCl, 1 mM MgCl2, 2.5 mM CaCl2, 5 mM D-glucose, 10 mM HEPES pH 7.4). Briefly, HEK 293 cells expressing TRPV1/2/3 channels were centrifuged at 600×g, resuspended in modified HBS containing 5 μg/mL of Fura 2-AM (Life Technologies), and incubated at 37 °C for 45 min. Next, the cells were centrifuged for 5 min at 600×g, resuspended in prewarmed, modified HBS, and incubated again at 37 °C for 20–30 min in the dark. The cells were subsequently pelleted and washed twice, and then resuspended in modified HBS for fluorescence measurements. Intracellular Ca^2+ was measured by taking the ratio of fluorescence (510 nm) emitted from Fura 2-AM after excitation at either a wavelength of 340 nm (excites Ca^2+ bound Fura 2-AM) or 380 nm (excites Ca^2+ free Fura 2-AM). The excitation wavelength was switched at 1-s intervals. ΔF340/F380 was measured as the difference between baseline F340/F380 ratio recorded before the addition of Ca^2+ (for TRPV6 experiments) or 2-APB (for TRPV1-3) and the maximum F340/F380 after addition of either Ca^2+ or 2-APB. Data were normalized to ΔF340/F380 in the absence of 2-APB (for TRPV6 constructs) or the ΔF340/F380 value at saturating concentrations of 2-APB (for TRPV1/2/3). All Fura2-AM-based fluorescence measurements were conducted using a QuantaMaster^TM 40 (Photon Technology International) spectrofluorometer at room temperature in a quartz cuvette under constant stirring.

[2] = biological target: rTRPV6-H425A (Rattus norvegicus, UniProt Q9R186, H465A); assay: cell-based
rTRPV6-H425A, sequence (Q9R186 41-767 H465A limits assumed): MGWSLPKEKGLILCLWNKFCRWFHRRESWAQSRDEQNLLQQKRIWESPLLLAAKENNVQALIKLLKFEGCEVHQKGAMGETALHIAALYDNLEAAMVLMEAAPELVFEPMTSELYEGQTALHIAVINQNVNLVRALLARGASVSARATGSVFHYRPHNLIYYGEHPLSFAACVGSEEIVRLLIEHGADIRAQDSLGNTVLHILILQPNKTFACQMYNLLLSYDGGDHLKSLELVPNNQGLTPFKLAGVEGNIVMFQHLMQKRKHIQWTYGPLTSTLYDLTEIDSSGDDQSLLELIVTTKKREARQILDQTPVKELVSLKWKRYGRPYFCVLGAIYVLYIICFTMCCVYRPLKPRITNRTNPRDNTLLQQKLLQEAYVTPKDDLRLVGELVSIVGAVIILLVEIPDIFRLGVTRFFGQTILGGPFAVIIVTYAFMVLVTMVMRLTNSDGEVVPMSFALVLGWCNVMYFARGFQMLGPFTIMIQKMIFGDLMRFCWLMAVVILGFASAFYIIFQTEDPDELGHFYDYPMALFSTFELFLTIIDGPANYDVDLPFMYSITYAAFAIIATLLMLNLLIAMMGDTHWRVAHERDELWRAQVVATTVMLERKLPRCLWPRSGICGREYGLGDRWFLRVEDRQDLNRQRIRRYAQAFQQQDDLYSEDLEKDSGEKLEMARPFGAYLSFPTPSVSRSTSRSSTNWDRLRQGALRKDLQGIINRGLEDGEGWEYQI
From the text: as §1, §2, §3

[3] = biological target: rTRPV6-M602A (Rattus norvegicus, UniProt Q9R186, M642A); assay: cell-based
rTRPV6-M602A, sequence (Q9R186 41-767 M642A limits assumed): as the sequence (Q9R186 41-767 H465A limits assumed) above, with A425H, M602A counted along it
From the text: as §1, §2, §3

[4] = biological target: rTRPV6-R469A (Rattus norvegicus, UniProt Q9R186, R509A); assay: cell-based
rTRPV6-R469A, sequence (Q9R186 41-767 R509A limits assumed): as the sequence (Q9R186 41-767 H465A limits assumed) above, with A425H, R469A counted along it
From the text: as §1, §2, §3

[5] = biological target: rTRPV6-Y466A (Rattus norvegicus, UniProt Q9R186, Y506A); assay: cell-based
rTRPV6-Y466A, sequence (Q9R186 41-767 Y506A limits assumed): as the sequence (Q9R186 41-767 H465A limits assumed) above, with A425H, Y466A counted along it
From the text: as §1, §2, §3

[6] = biological target: TRPV6* (rat TRPV6 residues 1-668, I62Y, L92N, M96Q) (Rattus norvegicus, UniProt Q9R186, I102Y/L132N/M136Q); assay: cell-based
TRPV6* (rat TRPV6 residues 1-668, I62Y, L92N, M96Q), sequence (Q9R186 1-668 I102Y/L132N/M136Q): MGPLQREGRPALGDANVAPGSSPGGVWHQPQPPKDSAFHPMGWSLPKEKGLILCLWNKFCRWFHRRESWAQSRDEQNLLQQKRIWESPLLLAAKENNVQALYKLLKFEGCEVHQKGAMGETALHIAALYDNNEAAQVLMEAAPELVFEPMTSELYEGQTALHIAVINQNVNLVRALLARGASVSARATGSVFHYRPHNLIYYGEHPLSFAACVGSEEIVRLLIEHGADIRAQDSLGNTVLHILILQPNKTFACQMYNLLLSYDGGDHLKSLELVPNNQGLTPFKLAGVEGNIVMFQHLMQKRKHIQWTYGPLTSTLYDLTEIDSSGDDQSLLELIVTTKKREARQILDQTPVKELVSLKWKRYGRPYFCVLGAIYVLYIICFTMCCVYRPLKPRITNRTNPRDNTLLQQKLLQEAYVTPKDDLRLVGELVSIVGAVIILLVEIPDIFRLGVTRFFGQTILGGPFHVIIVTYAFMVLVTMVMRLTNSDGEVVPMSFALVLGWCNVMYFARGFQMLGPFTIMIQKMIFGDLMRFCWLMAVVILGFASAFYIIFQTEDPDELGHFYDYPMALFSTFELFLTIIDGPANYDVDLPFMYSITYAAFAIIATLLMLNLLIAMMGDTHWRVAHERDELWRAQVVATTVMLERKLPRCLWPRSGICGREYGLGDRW
Description: (§4) Arrows indicate the times when 2-APB and Ca^2+ were added. […] The changes in the fluorescence intensity ratio at 340 and 380 nm (F340/F380) evoked by addition of 2 mM Ca^2+ after preincubation with various concentrations of 2-APB were normalized to the maximal change in F340/F380 after addition of 2 mM Ca^2+ in the absence of 2-APB. […] Error bars represent SEMs
as §2
as §3, with “TRPV1/2/3).” for “TRPV1/2/3). All Fura2-AM-based fluorescence measurements were conducted using a QuantaMaster^TM 40 (Photon Technology International) spectrofluorometer at room temperature in a quartz cuvette under constant stirring.”

[7] = biological target: hTRPV6-Y467A (Homo sapiens, UniProt Q9H1D0, Y507A); assay: cell-based
Description: as §4, §2
as §3, with “TRPV1/2/3).” for “TRPV1/2/3). All Fura2-AM-based fluorescence measurements were conducted using a QuantaMaster^TM 40 (Photon Technology International) spectrofluorometer at room temperature in a quartz cuvette under constant stirring.”

[8] = biological target: wild-type hTRPV6 (Homo sapiens, UniProt Q9H1D0); assay: cell-based
wild-type hTRPV6, sequence (Q9H1D0 41-765 limits assumed): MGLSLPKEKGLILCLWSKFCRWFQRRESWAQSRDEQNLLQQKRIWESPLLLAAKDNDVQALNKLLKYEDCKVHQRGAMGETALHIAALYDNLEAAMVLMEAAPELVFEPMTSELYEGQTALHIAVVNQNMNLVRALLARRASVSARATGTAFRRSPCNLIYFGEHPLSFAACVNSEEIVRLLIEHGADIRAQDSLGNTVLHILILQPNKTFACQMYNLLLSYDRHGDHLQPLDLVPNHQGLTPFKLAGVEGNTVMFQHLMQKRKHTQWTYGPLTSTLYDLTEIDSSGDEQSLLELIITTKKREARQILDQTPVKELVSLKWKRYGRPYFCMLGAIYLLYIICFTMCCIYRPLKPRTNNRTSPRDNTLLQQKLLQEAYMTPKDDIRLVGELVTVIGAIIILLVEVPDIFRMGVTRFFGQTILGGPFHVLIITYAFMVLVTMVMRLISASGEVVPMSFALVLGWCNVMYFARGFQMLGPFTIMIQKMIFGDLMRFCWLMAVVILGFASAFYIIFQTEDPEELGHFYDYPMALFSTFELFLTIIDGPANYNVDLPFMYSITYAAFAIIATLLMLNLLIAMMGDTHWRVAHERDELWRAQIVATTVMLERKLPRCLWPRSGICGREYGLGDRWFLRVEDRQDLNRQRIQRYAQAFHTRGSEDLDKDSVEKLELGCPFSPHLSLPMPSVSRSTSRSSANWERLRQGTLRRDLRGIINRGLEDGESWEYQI
Description: as §4, §2
as §3, with “TRPV1/2/3).” for “TRPV1/2/3). All Fura2-AM-based fluorescence measurements were conducted using a QuantaMaster^TM 40 (Photon Technology International) spectrofluorometer at room temperature in a quartz cuvette under constant stirring.”

[9] = biological target: wild-type rTRPV6 (Rattus norvegicus, UniProt Q9R186); assay: cell-based
wild-type rTRPV6, sequence (Q9R186 41-767 limits assumed): as the sequence (Q9R186 41-767 H465A limits assumed) above, with A425H counted along it
Description: as §4, §2
as §3, with “TRPV1/2/3).” for “TRPV1/2/3). All Fura2-AM-based fluorescence measurements were conducted using a QuantaMaster^TM 40 (Photon Technology International) spectrofluorometer at room temperature in a quartz cuvette under constant stirring.”

[10] = test system: mouse TRPV3 (mTRPV3-Y564A); details: leftward shift of 2-APB concentration dependence; HEK 293 cells, Fura-2
From the text: (§5) Fig. 5 Probing of the 2-APB binding site in different TRPV channels. a–c Dose–response curves for 2-APB activation of wild-type (black) and mutant (red) rat TRPV1 (a), rat TRPV2 (b), and mouse TRPV3 (c) channels with alanine substitution of the conserved tyrosine in the presumed 2-APB binding pocket. Each data point represents an average of n = 3–7 measurements with error bars representing SEMs. d, e Close-up view of superposition of the 2-APB binding pocket in the TRPV6*2-APB crystal structure (cyan) and the corresponding regions of rat TRPV1 (d) PDB ID: 5IRX, orange and rabbit TRPV2 (e) PDB ID: 5AN8, green. Phosphatidylcholine (PC), cholesterol and 2-APB molecules as well as the side chain of the conserved tyrosine are shown as sticks
(§6) For crystallization experiments, we used the previously developed construct TRPV6*[39], which includes wild-type rat TRPV6 (rTRPV6) residues 1–668 and three point mutations (I62Y, L92N, and M96Q), and the TRPV6*-Y466A construct, which contains an additional point mutation, Y466A. […]
(§7) The intracellular Ca^2+ measurements from HEK 293 cells expressing different TRP channel constructs (see above) were performed similarly to those described previously[39],[49]. […] The cells were subsequently pelleted and washed twice, and then resuspended in modified HBS for fluorescence measurements. Intracellular Ca^2+ was measured by taking the ratio of fluorescence (510 nm) emitted from Fura 2-AM after excitation at either a wavelength of 340 nm (excites Ca^2+ bound Fura 2-AM) or 380 nm (excites Ca^2+ free Fura 2-AM). The excitation wavelength was switched at 1-s intervals. ΔF340/F380 was measured as the difference between baseline F340/F380 ratio recorded before the addition of Ca^2+ (for TRPV6 experiments) or 2-APB (for TRPV1-3) and the maximum F340/F380 after addition of either Ca^2+ or 2-APB. […] All Fura2-AM-based fluorescence measurements were conducted using a QuantaMaster^TM 40 (Photon Technology International) spectrofluorometer at room temperature in a quartz cuvette under constant stirring.

[11] = test system: rat TRPV1 (rTRPV1-Y554A); details: leftward shift of 2-APB concentration dependence; HEK 293 cells, Fura-2
From the text: as §5, §6, §7

[12] = test system: rat TRPV2 (rTRPV2-Y514A); details: leftward shift of 2-APB concentration dependence; HEK 293 cells, Fura-2
From the text: as §5, §6, §7

[13] = test system: TRPV4; details: cited from earlier work
[14] = test system: TRPV5; details: cited from earlier work
[15] = biological target: TRPV6* (rat TRPV6 residues 1-668 with I62Y, L92N and M96Q) (rat) (UniProt Q9R186); assay: crystal structure; TRPV6* constructs purified in DDM, without or with 1 mM 2-APB or 2-APB-Br; hanging drop, 20 °C, 20-24% PEG 350 MME, 50 mM NaCl, 50 mM Tris-HCl pH 8.0-8.5
[16] = biological target: the molecule itself; assay: cryo-EM structure; hTRPV6-Y467A in amphipols, 0.35 mg/ml, without or with 1 mM 2-APB; C4 symmetry imposed
[17] = HEK 293 cells, Fura-2, logistic fit, mean ± SEM
[18] = HEK 293 cells, Fura-2, logistic fit

rTRPV6-E402A, sequence (Q9R186 41-767 E442A limits assumed): as the sequence (Q9R186 41-767 H465A limits assumed) above, with E402A, A425H counted along it

IC50 [1]: 7.5 ± 2.1 µM
IC50 [2]: 165 ± 32 µM
IC50 [3]: 98 ± 19 µM
IC50 [4]: 23.4 ± 1.6 µM
IC50 [5]: 3.62 ± 0.54 µM
IC50 [6]: 156 ± 20 µM
maximal inhibition of Ca2+ uptake, TRPV6* [6, 17]: 83.5 ± 2.9%
IC50 [7]: 60 ± 13 µM
maximal inhibition of Ca2+ uptake, hTRPV6-Y467A [7, 18]: 92.4 ± 8.1%
increased potency of 2-APB inhibition, hTRPV6-Y467A compared to hTRPV6 ([7]; ratio of IC50 values): 4.5 fold
IC50 [8]: 274 ± 27 µM
maximal inhibition of Ca2+ uptake, wild-type hTRPV6 [8, 18]: 72.6 ± 2.7%
IC50 [9]: 184 ± 8 µM
maximal inhibition of Ca2+ uptake, wild-type rTRPV6 [9, 17]: 93.6 ± 1.1%
Molecule: NCCOB(c1ccccc1)c1ccccc1 [2-APB, 2-aminoethoxydiphenyl borate]
increase in 2-APB agonist potency, TRPV3 tyrosine-to-alanine mutant vs wild-type [10]: 20 fold
increase in 2-APB agonist potency, TRPV1 tyrosine-to-alanine mutant vs wild-type [11]: 3 fold
increase in 2-APB agonist potency, TRPV2 tyrosine-to-alanine mutant vs wild-type [12]: 40 fold
2-APB modulation of TRPV4 [13]: lack of measurable 2-APB modulation
2-APB modulation of TRPV5 [14]: lack of measurable 2-APB modulation

stoichiometry N [15]: 4
Molecule: TRPV6* (rat TRPV6 residues 1-668 with I62Y, L92N and M96Q) (from UniProt Q9R186 1-668) (domain or fragment)

B1: human TRPV6 with a single tyrosine-to-alanine substitution (hTRPV6-Y467A) (natural protein)
chain: MGLSLPKEKGLILCLWSKFCRWFQRRESWAQSRDEQNLLQQKRIWESPLLLAAKDNDVQALNKLLKYEDCKVHQRGAMGETALHIAALYDNLEAAMVLMEAAPELVFEPMTSELYEGQTALHIAVVNQNMNLVRALLARRASVSARATGTAFRRSPCNLIYFGEHPLSFAACVNSEEIVRLLIEHGADIRAQDSLGNTVLHILILQPNKTFACQMYNLLLSYDRHGDHLQPLDLVPNHQGLTPFKLAGVEGNTVMFQHLMQKRKHTQWTYGPLTSTLYDLTEIDSSGDEQSLLELIITTKKREARQILDQTPVKELVSLKWKRYGRPYFCMLGAIYLLYIICFTMCCIYRPLKPRTNNRTSPRDNTLLQQKLLQEAYMTPKDDIRLVGELVTVIGAIIILLVEVPDIFRMGVTRFFGQTILGGPFHVLIITYAFMVLVTMVMRLISASGEVVPMSFALVLGWCNVMAFARGFQMLGPFTIMIQKMIFGDLMRFCWLMAVVILGFASAFYIIFQTEDPEELGHFYDYPMALFSTFELFLTIIDGPANYNVDLPFMYSITYAAFAIIATLLMLNLLIAMMGDTHWRVAHERDELWRAQIVATTVMLERKLPRCLWPRSGICGREYGLGDRWFLRVEDRQDLNRQRIQRYAQAFHTRGSEDLDKDSVEKLELGCPFSPHLSLPMPSVSRSTSRSSANWERLRQGTLRRDLRGIINRGLEDGESWEYQILVPRGSAAAWSHPQFEK
stoichiometry N [16]: 4
